These results are taken from ChEMBL document CHEMBL3988442, “University of Dundee, Small-Polar-MMV Screening Library” (2021).

“And” between values parts separate entries of the source, which are not always exact repeats. Identical values can stand only once. Some results are limits rather than exact numbers.

The experiment addresses Sialic acid-binding Ig-like lectin 9 (Homo sapiens, UniProt Q9Y336). Kind of experiment: Hs-Siglec9 ALPHAscreen SOP 20170721.

Chain of Sialic acid-binding Ig-like lectin 9 (Q9Y336 whole entry): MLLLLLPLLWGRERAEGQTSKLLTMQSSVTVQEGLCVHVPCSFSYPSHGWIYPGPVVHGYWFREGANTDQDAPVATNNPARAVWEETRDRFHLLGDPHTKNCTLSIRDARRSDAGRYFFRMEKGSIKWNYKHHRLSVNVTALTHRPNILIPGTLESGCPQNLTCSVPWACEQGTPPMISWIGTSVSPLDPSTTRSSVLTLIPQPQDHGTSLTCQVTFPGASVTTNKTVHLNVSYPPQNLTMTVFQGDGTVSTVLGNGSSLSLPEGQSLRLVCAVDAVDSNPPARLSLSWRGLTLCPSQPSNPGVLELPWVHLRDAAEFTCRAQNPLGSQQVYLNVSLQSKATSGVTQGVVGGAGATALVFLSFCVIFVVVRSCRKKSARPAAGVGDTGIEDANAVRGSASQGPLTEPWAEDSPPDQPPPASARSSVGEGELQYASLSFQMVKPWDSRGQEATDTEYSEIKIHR

The compound `CCOC(=O)CNC(=O)c1cccnc1Oc1ccc(Cl)cc1` had an IC50 of over 30.2 µM. In the case of `CCOC(=O)[C@@H]1[C@@H](O)C(=O)N(C)C12CCN(C(=O)c1ccco1)CC2` it was over 30.2 µM; in that of `CCOC(=O)[C@@H]1[C@@H](OC)C(=O)N(C)C12CCN(C(=O)C(CC)CC)CC2`, over 30.2 µM. As for `CCOC(=O)[C@H]1[C@@H](O)C(=O)N(C)C12CCN(C(=O)OC)CC2`, the IC50 is over 30.2 µM. Turning to `CCOC(=O)[C@H]1[C@@H](O)C(=O)N(C)C12CCN(C(=O)OCC)CC2`, the IC50 is over 30.2 µM.

Take `CCOC(=O)[C@H]1[C@@H](O)C(=O)N(C)C12CCN(C(=O)CC(C)C)CC2`: the IC50 was over 30.2 µM.

`CCOC(=O)[C@H]1[C@@H](O)C(=O)N(C)C12CCN(S(=O)(=O)CC)CC2` had an IC50 of over 30.2 µM.

Take `CCOC(=O)[C@H]1[C@@H](O)C(=O)N(C)C12CCN(C(=O)CC(C)(C)C)CC2`: the IC50 is over 30.2 µM.

Take `CCOC(=O)[C@H]1[C@@H](O)C(=O)N(C)C12CCN(C(=O)C(CC)CC)CC2`: the IC50 is over 30.2 µM.

Consider `CCOC(=O)[C@H]1[C@@H](O)C(=O)N(C)C12CCN(C(=O)CC1CCCC1)CC2`, for which the IC50 was over 30.2 µM. As to `CCOC(=O)[C@@H]1[C@@H](O)C(=O)N(C)C12CCN(C(=O)OC)CC2`, the IC50 is over 30.2 µM.

For the compound `CCOC(=O)[C@H]1[C@@H](O)C(=O)N(C)C12CCN(C(=O)c1ccccc1)CC2`, the IC50 is over 30.2 µM. In the case of `CC(C)NC(=O)c1csc(NC2CC2)n1` it was over 30.2 µM; in that of `CC(C)CCNc1nc(C(=O)NC2CC2)cs1`, over 30.2 µM; in that of `CC(=O)NCC(=O)N1Cc2cc(C#N)ccc2C1c1cnco1` (centres undefined), over 30.2 µM. Regarding `COCCN1CCC2(CC1)COc1ccccc1S(=O)(=O)N(C)C2`, the concentration for half-maximal inhibition (IC50) is over 30.2 µM. In the case of `CN(C)CC(=O)N1CCC2(CC1)COc1ccccc1S(=O)(=O)N(C)C2` it was over 30.2 µM; in that of `COCC(=O)N1CCC2(CC1)COc1ccccc1S(=O)(=O)N(C)C2`, over 30.2 µM. To `CCn1ncc2c1C(COC)CN(Cc1nccs1)C2` (centres undefined) belongs over 30.2 µM; to `CCOCC1CN(Cc2ccsc2)Cc2cnn(C)c21` (centres undefined), over 30.2 µM. To `CCn1ncc2c1C(COC)CN(Cc1ccco1)C2` (centres undefined) belongs over 30.2 µM; to `CCn1ncc2c1C(COC)CN(Cc1ccc(C)o1)C2` (centres undefined), over 30.2 µM.

`CN(C)C(=O)COC[C@]12COC[C@H]1CN(Cc1ccoc1)C2` had an IC50 of over 30.2 µM. To `CCn1ncc2c1C(COC)CN(Cc1ccsc1)C2` (centres undefined) belongs over 30.2 µM; to `CCC(=O)N1CCC2(CC1)COc1ccccc1S(=O)(=O)N(C)C2`, over 30.2 µM; to `CCn1ncc2c1C(COC)CN(Cc1ccc(OC)cc1)C2` (centres undefined), over 30.2 µM. In the case of `COCCNC(=O)c1nnn(Cc2ccccc2)c1OC` it was over 30.2 µM. In the case of `CCNC(=O)c1nnn(Cc2ccccc2)c1OC` it was over 30.2 µM; in that of `CCN(CC)C(=O)c1nnn(Cc2ccccc2)c1OC`, over 30.2 µM. In turn, `COc1c(C(=O)NCc2cccnc2)nnn1Cc1ccc(C)cc1` gave an IC50 of over 30.2 µM. In the case of `FC(F)(F)c1cc(C2CCCN(c3ncccn3)C2)n2ccnc2n1` (centres undefined) it was over 30.2 µM.

`CCc1cc(C(=O)N2CCCC(c3cc(=O)nc4n3CCC4)C2)no1` (centres undefined) gave an IC50 of over 30.2 µM. In the case of `CC(C)c1cc(C(=O)N2CCCC(c3cc(=O)nc4n3CCC4)C2)no1` (centres undefined) it was over 30.2 µM; in that of `CC(C)CCN1CCC2(CC1)NCc1ccccc1NC2=O`, over 30.2 µM. In the case of `O=C1Nc2ccccc2CNC12CCN(CC1CCNC1)CC2` (centres undefined) it was over 30.2 µM; in that of `O=C1Nc2ccccc2CNC12CCN(CC1CCCC1)CC2`, over 30.2 µM.

`O=C1Nc2ccccc2CNC12CCN(CC1CC1)CC2` gave an IC50 of over 30.2 µM. To `O=C1Nc2ccccc2CN(CC2CC2)C12CCNC2` (centres undefined) belongs over 30.2 µM; to `CN1Cc2ccccc2NC(=O)C12CCNC2` (centres undefined), over 30.2 µM; to `CCCN1Cc2ccccc2NC(=O)C12CCNC2` (centres undefined), over 30.2 µM. To `CC(C)N(C)CC(=O)NCc1ccccc1N1CCN(C)CC1` belongs over 30.2 µM; to `COc1ccc(C(C)NCc2cscn2)cc1Cn1cccn1` (centres undefined), over 30.2 µM. In the case of `COc1ccc(C(C)NCc2cccs2)cc1Cn1cccn1` (centres undefined) it was over 30.2 µM; in that of `COc1ccc(C(C)NCc2ccnn2C)cc1Cn1cccn1` (centres undefined), over 30.2 µM; in that of `COc1ccc(C(C)NCc2scnc2C)cc1Cn1cccn1` (centres undefined), over 30.2 µM. `c1cc2occc2c(N2CCCC(c3nncn3C3CC3)C2)n1` (centres undefined) showed an IC50 of over 30.2 µM. With `Cc1cc(N2CCCC(c3nncn3C3CC3)C2)ncn1` (centres undefined), the IC50 is over 30.2 µM. In the case of `Cc1ccnc(N2CCCC(c3nncn3C3CC3)C2)n1` (centres undefined) it was over 30.2 µM; in that of `Cc1ccnc(NC(=O)c2c(C)oc(C)c2C)c1`, over 30.2 µM; in that of `Cc1ccnc(NC(=O)c2cc(C)oc2C)c1`, over 30.2 µM. `Cc1oc(C)c(C(=O)Nc2ccccn2)c1C` had an IC50 of over 30.2 µM. In the case of `COCCC1(C(=O)NCCc2nncn2C2CC2)CCC1` it was over 30.2 µM; in that of `O=C(NCCc1nncn1C1CC1)C1(c2ccccc2)CCC1`, over 30.2 µM; in that of `CC(C)CC1(C(=O)NCCc2nncn2C2CC2)CCC1`, over 30.2 µM. `O=C(NCCc1nncn1C1CC1)C1(Cc2ccccc2)CCC1`: the IC50 is over 30.2 µM. For the compound `O=C(NCCc1nncn1C1CC1)C1SCCc2ccccc21` (centres undefined), the IC50 is over 30.2 µM. To `O=C(NCCc1nncn1C1CC1)C1SCCc2sccc21` (centres undefined) belongs over 30.2 µM; to `COCCN(CCOC)C(=O)c1ccoc1C`, over 30.2 µM; to `Cc1cc(C(=O)N2CCNC(=O)CC2)c(C)n1CC(F)(F)F`, over 30.2 µM.

As to `CCn1c(C)cc(C(=O)N2CCC(NC(=O)c3cc(C)no3)CC2)c1C`, the IC50 is over 30.2 µM. In the case of `CCn1c(C)cc(C(=O)N2CCC(NC(=O)c3ccc(C)o3)CC2)c1C` it was over 30.2 µM; in that of `CCn1c(C)cc(C(=O)N2CCC(Nc3cccnn3)CC2)c1C`, over 30.2 µM; in that of `Cc1occc1C(=O)N1CCOC2(CCCC2)C1`, over 30.2 µM. In the case of `COC(=O)C(O)C1CCN(CCc2ccncc2)CC1` (centres undefined), the IC50 is over 30.2 µM. In the case of `COC(=O)C(O)C1CCN(CCc2ccccn2)CC1` (centres undefined) it was over 30.2 µM.

Regarding `COC(=O)C(O)C1CCN(CCc2ccc(C)cc2)CC1` (centres undefined), the IC50 was over 30.2 µM. To `CC(=O)NCCCSC1CCN(c2ccccc2Cl)C1=O` (centres undefined) belongs over 30.2 µM. To `CC(=O)NCCCSC1CCN(c2c(F)cccc2F)C1=O` (centres undefined) belongs over 30.2 µM; to `CC(=O)NCCCSC1CCN(c2ccccc2F)C1=O` (centres undefined), over 30.2 µM; to `CC(c1ccc(Cl)cc1)N1CCN(CCNS(C)(=O)=O)CC1` (centres undefined), over 30.2 µM. To `Cc1nc(C)c(C(=O)N2CCC(Nc3cccnc3)CC2)s1` belongs 9.22 µM and 7.13 µM and 9.36 µM and 3.87 µM; to `CN(C)C(=O)CN1CCC2(CC1)COc1ccccc1S(=O)(=O)N(C)C2`, over 30.2 µM.

The compound `Cc1ccsc1CN1C[C@@H]2COC[C@]2(COCC(=O)N(C)C)C1` showed an IC50 of over 30.2 µM. To `CN(C)C(=O)COC[C@]12COC[C@H]1CN(CCc1ccccc1)C2` belongs over 30.2 µM; to `Cc1csc(CN2C[C@@H]3COC[C@]3(COCC(=O)N(C)C)C2)n1`, over 30.2 µM; to `CN(C)C(=O)COC[C@]12COC[C@H]1CN(Cc1ccco1)C2`, over 30.2 µM. Turning to `CN(C)C(=O)COC[C@]12COC[C@H]1CN(Cc1ccccc1)C2`, the IC50 is over 30.2 µM. In the case of `CCn1nnc2c1C(COC)CN(Cc1ccsc1)C2` (centres undefined) it was over 30.2 µM. In the case of `Cc1nc(COC[C@]23COC[C@H]2CN(Cc2ccoc2)C3)cs1` it was over 30.2 µM; in that of `CN(C)C(=O)COC[C@]12COC[C@H]1CN(CC1CCC1)C2`, over 30.2 µM; in that of `c1csc(CN2Cc3nccn3CC(Cn3cncn3)C2)n1` (centres undefined), over 30.2 µM. As for `CC(=O)N1Cc2ccnn2CC(C(=O)NCc2cccnc2)C1` (centres undefined), the IC50 was over 30.2 µM. Regarding `Cc1occc1C(=O)N1CCO[C@H]2[C@H](Oc3cccnc3)CC[C@@H]21`, the IC50 is over 30.2 µM. To `O=C(C1CCOCC1)N1CCO[C@H]2[C@H](Oc3ccccn3)CC[C@@H]21` belongs over 30.2 µM.

`Cc1occc1C(=O)N1C[C@H](Oc2ccccn2)[C@H]2OCCC[C@H]21` gave a 50% inhibitory concentration (IC50) of over 30.2 µM. Compound `Cc1cc(C(=O)N2CCO[C@H]3[C@H](Oc4ccccn4)CC[C@@H]32)c(C)[nH]1` had an IC50 of over 30.2 µM. In the case of `Cc1occc1C(=O)N1CCO[C@H]2[C@H](OCc3ccccn3)CC[C@@H]21` it was over 30.2 µM; in that of `O=C(c1cscn1)N1CCO[C@H]2[C@@H](Oc3ccccn3)CC[C@@H]21`, over 30.2 µM. The compound `c1cnc(N2CCC3(CCN(CC4CCOC4)CC3)C2)nc1` (centres undefined) had an IC50 of over 30.2 µM. `c1cnc(N2CCCC3(CCN(CC4CCOC4)CC3)C2)nc1` (centres undefined) showed an IC50 of over 30.2 µM. As for `c1cnc(N2CCC3(CCCN(CC4CC4)C3)CC2)nc1`, the concentration for half-maximal inhibition (IC50) was over 30.2 µM. `O=C(N1CCCC1)N1CCO[C@H]2[C@@H](Oc3ccccn3)CC[C@@H]21` gave an IC50 of over 30.2 µM. The compound `Cc1occc1C(=O)N1CCO[C@H]2[C@@H](Oc3ccccn3)CC[C@@H]21` gave an IC50 of over 30.2 µM. To `O=C(C1=CCCC1)N1CCO[C@H]2[C@@H](Oc3ccccn3)CC[C@@H]21` belongs over 30.2 µM. Turning to `CCn1ncc2c1C(COC)CN(Cc1ccc(F)cc1)C2` (centres undefined), the IC50 is over 30.2 µM. In the case of `Cc1cccc(CN2C[C@@H]3COC[C@]3(COCC(=O)N(C)C)C2)n1` it was over 30.2 µM; in that of `CS(=O)(=O)N1Cc2ccnn2CC(C(=O)NCc2cccnc2)C1` (centres undefined), over 30.2 µM; in that of `Cc1cncc(C(=O)N2CCO[C@H]3[C@H](Oc4ccccn4)CC[C@@H]32)c1`, over 30.2 µM. For the compound `c1cnc(N2CCC3(CCN(CC4CCCC4)CC3)C2)nc1`, the IC50 was over 30.2 µM. In turn, `c1cnc(N2CCC3(CCN(CC4CCOCC4)CC3)C2)nc1` gave an IC50 of over 30.2 µM.

As to `CCn1ncc2c1C(COC)CN(Cc1cccnc1)C2` (centres undefined), the IC50 is over 30.2 µM. `COc1ccc([C@@H]2CN(Cc3ccncc3)C[C@H]2c2cc[nH]n2)cc1` had an IC50 of over 30.2 µM. To `c1ccc([C@@H]2CN(Cc3cccnc3)C[C@H]2c2cc[nH]n2)cc1` belongs over 30.2 µM; to `c1ccc([C@@H]2CN(Cc3ccncc3)C[C@H]2c2cc[nH]n2)cc1`, over 30.2 µM.
